Source: article PMC5841303, “In silico screening for human norovirus antivirals reveals a novel non-nucleoside inhibitor of the viral polymerase” (Scientific Reports, 2018)
Counter-ions that a name gives are not always drawn. Like-named read-outs stand apart in the source and are kept apart here.

Key:
human norovirus RdRp = settings: cited from earlier work
[1] = parameters: method as in PMID 24316032, PMID 24616282; settings: cited from earlier work
human norovirus replicon = system: human norovirus replicon; parameters: method as in PMID 26392512; settings: cell culture; read-out: EC50 against the human norovirus replicon; cited from earlier work
human norovirus = system: human norovirus; parameters: method as in PMID 27210811; settings: read-out: EC50 against human norovirus in the B-cell culture system; cited from earlier work
norovirus RdRp = experiment: Counter-screen gel-shift RdRp assay (primed elongation of PE44-NoV template); format: biochemical, human norovirus; settings: 10 µM

For `CC1=N/C(=N/Nc2cc(S(=O)(=O)O)c3cc([N+](=O)[O-])cc(S(=O)(=O)O)c3c2)C(COP(=O)(O)O)=C(C=O)C1=O` [PPNDS, pyridoxal-5′-phosphate-6-(2′-naphthylazo-6′-nitro-4′,8′-disulfonate) tetrasodium salt], the IC50 (human norovirus RdRp; in vitro, read-out: IC50 against human norovirus RdRp activity) is listed as 450 nM and the cell membrane permeability [1] is listed as “poor cell membrane permeability”.

In the case of `C[C@@]1(O)[C@H](O)[C@@H](CO)O[C@H]1n1ccc(N)nc1=O` [Compound 2CMC, 2′-C-methylcytidine], the IC50 (human norovirus RdRp; read-out: IC50 against human norovirus RdRp) is listed as 2500 nM, the EC50 (human norovirus replicon) is listed as 8200 nM and the EC50 (human norovirus) is listed as 300 nM.

For `Nc1nc2c(ncn2[C@@H]2O[C@H](COP(=O)(O)OP(=O)(O)OP(=O)(O)O)C[C@H]2O)c(=O)[nH]1` [3′dGTP, 3′-deoxyguanosine-5′-triphosphate], the “inhibition of transcription (gel-shift, positive control)” value (norovirus RdRp) was “complete inhibition”.

For `Cc1ccc(C(=O)Nc2ccc(S(=O)(=O)O)c3cc(S(=O)(=O)O)cc(S(=O)(=O)O)c23)cc1NC(=O)c1cccc(NC(=O)Nc2cccc(C(=O)Nc3cc(C(=O)Nc4ccc(S(=O)(=O)O)c5cc(S(=O)(=O)O)cc(S(=O)(=O)O)c45)ccc3C)c2)c1` [suramin], the IC50 (human norovirus RdRp; enzymatic assays, read-out: IC50 against human norovirus RdRp) is listed as 27 nM and the cell membrane permeability [1] is listed as “poor cell membrane permeability”.
